Measurements: patent US4565811A, “Sodium salt of ursodeoxycholic sulphate” (Istituto Biologico Chemioterapico "ABC" S.p.A., priority 1983, dated 1986)
Counter-ions that a name gives are not always drawn.

What was measured:
[1] = system: hyperdislipidemia caused by Triton WR-1339 in the rat; assay: Action on the hyperdislipidemia caused by Triton WR-1339 in the rat; type: in vivo, Albinus rats (Witar); conditions: for Alfa-Lipoproteins: Increase towards Group 2 / Beta-Lipoproteins: Inhibition towards Group 2 / Beta/alfa ratio: Inhibition towards Group 2 / Total cholesterol: Inhibition in comparison with Group 2 / Total lipids: Inhibition in comparison with Group 2 / Triglycerids: Inhibition in comparison with Group 2: vs Group 2 (Triton control); for Activity compared with UA: oral
Method: Action on the hyperdislipidemia caused by Triton WR-1339 in the rat
Albinus rats (Witar) of 300-320 g each, having been fed only with water "ad libitum" for 12 hours, were treated with US and UA, by oral route, 4 hours before and 15 hours after the administration intraperitenously of Triton WR-1339 at the dosage of 300 mg/kg in 10 ml/kg of physiologic solution at 0.9%.
US and UA dosages were 25, 50 and 100 mg/kg respectively and the rats were divided in the following groups of 10 animals each.
Group 1: Controls treated with 10 ml/kg of physiological solution at 0.9% orally.
Group 2: Controls treated with 300 mg/kg of Triton WR-1339 i.p. and 10 ml/kg of carboxy methyl cellulose (CMC) at 0.5%.
Group 3, 4 and 5: UA at 25, 50 and 100 mg/kg respectively suspended in 10 ml/kg of CMC at 0.5%.
Groups 6, 7 and 8: US at 25, 50 and 100 mg/kg respectively dissolved in 10 ml/kg of physiologic solution.
The following Tables 1 and 2 list the results of blood-tests from addominal aorta of rats sacrificed 5 hours after the last treatment: […]

[2] = Acute toxicity of US in the rat by oral administration; type: in vivo; design: key to Symptomatology: N: none; D: depression; conditions: rat, in vivo
Method: (§1) Acute toxicity of sodium ursosulphate was tested in rats by administering the different doses of the compound directly in a physiologic solution at 0.9% in a volume either of 10 ml/kg by oral route through a probe directly to the stomach or of 5 ml/kg intraperitoneously or intravenously.
(§2) The dosages administered to groups of 10 animals each are reported in the following Tables 3 to 5 together with the symptomatology observed for a period of 8 days.

rat [3] = assay: as above; type: in vivo; design: key to Symptomatology: N: none; D: depression; conditions: for Symptomatology: 8 days; for Died animals: groups of 10, 8 days
Method: as §1, §2

[4] = Acute toxicity of US in the rat by intraperitoneal administration; type: in vivo; design: key to Symptomatology: N: none; D: depression; conditions: rat, in vivo, ip
Method: as §1, §2

rat [5] = assay: as above; type: in vivo; design: key to Symptomatology: N: none; D: depression; conditions: for Symptomatology: 8 days; for Died animals: groups of 10, 8 days
Method: as §1, §2

[6] = Acute toxicity of US in the rat by intravenous route; type: in vivo; design: key to Symptomatology: N: none; D: depression; conditions: rat, in vivo
Method: as §1, §2

rat [7] = assay: as above; type: in vivo; design: key to Symptomatology: N: none; D: depression; conditions: for Symptomatology: 8 days; for Died animals: groups of 10, 8 days
Method: as §1, §2

[8] = Solubility in water / acidity; type: physicochemical; conditions: water
[9] = Toxicity of sodium ursosulphate compared with ursodeoxycholic acid; conditions: in vivo
[10] = 25 mg/kg os, Triton WR-1339 rat
[11] = 50 mg/kg os, Triton WR-1339 rat
[12] = 100 mg/kg os, Triton WR-1339 rat
[13] = rat, up to the administered doses

With `CC(CCC(=O)O)C1CCC2C3C(OS(=O)(=O)O)CC4CC(OS(=O)(=O)O)CCC4(C)C3CCC12C` (stereo not drawn) [US, sodium salt of ursodeoxycholic O-sulphate] the “Alfa-Lipoproteins Average ± SD” value [1, 10] was 29,2 ± 6,7 mg/100 ml serum, the “Beta-Lipoproteins Average ± SD” value [1, 10] was 191,5 ± 42,1 mg/100 ml serum and the “Beta/alfa ratio Average ± SD” value [1, 10] was 7,23 ± 3,6 mg/100 ml serum. The “Total cholesterol Average ± SD” value [1, 10] was 220,8 ± 36,4 mg/100 ml serum, the “Total lipids Average ± SD” value [1, 10] was 2697,1 ± 706,8 mg/100 ml serum and the “Triglycerids Average ± SD” value [1, 10] was 1040,6 ± 91,08 mg/100 ml serum. The “Alfa-Lipoproteins: Increase towards Group 2” value ([1]; 25 mg/kg os) was “+30,4%”, the “Beta-Lipoproteins: Inhibition towards Group 2” value ([1]; 25 mg/kg os) was -29,9% and the “Beta/alfa ratio: Inhibition towards Group 2” value ([1]; 25 mg/kg os) was -42,0%. For the same molecule, the “Total cholesterol: Inhibition in comparison with Group 2” value (shortened to “Total cholesterol: Inhibition”) ([1]; 25 mg/kg os) was -25,4%, the “Total lipids: Inhibition in comparison with Group 2” value (“Total lipids: Inhibition” for short) ([1]; 25 mg/kg os) was -29,4% and the “Triglycerids: Inhibition in comparison with Group 2” value (shortened to “Triglycerids: Inhibition”) ([1]; 25 mg/kg os) was -20,7%. The “Alfa-Lipoproteins Average ± SD” value [1, 11] was 39,32 ± 5,5 mg/100 ml serum, the “Beta-Lipoproteins Average ± SD” value [1, 11] was 123,8 ± 27,7 mg/100 ml serum and the “Beta/alfa ratio Average ± SD” value [1, 11] was 3,15 ± 1,1 mg/100 ml serum. For the same molecule, the “Total cholesterol Average ± SD” value [1, 11] was 163,2 ± 25,7 mg/100 ml serum, the “Total lipids Average ± SD” value [1, 11] was 1972,6 ± 550,0 mg/100 ml serum and the “Triglycerids Average ± SD” value [1, 11] was 654,3 ± 206,5 mg/100 ml serum. For the same molecule, the “Alfa-Lipoproteins: Increase towards Group 2” value ([1]; 50 mg/kg os) was “+75,4%”, the “Beta-Lipoproteins: Inhibition towards Group 2” value ([1]; 50 mg/kg os) was -54,7% and the “Beta/alfa ratio: Inhibition towards Group 2” value ([1]; 50 mg/kg os) was -74,7%. For the same molecule, the “Total cholesterol: Inhibition” value ([1]; 50 mg/kg os) was -44,3%, the “Total lipids: Inhibition” value ([1]; 50 mg/kg os) was -48,4% and the “Triglycerids: Inhibition” value ([1]; 50 mg/kg os) was -50,1%. For the same molecule, the “Alfa-Lipoproteins Average ± SD” value [1, 12] was 44,8 ± 8,5 mg/100 ml serum, the “Beta-Lipoproteins Average ± SD” value [1, 12] was 102,3 ± 36,9 mg/100 ml serum and the “Beta/alfa ratio Average ± SD” value [1, 12] was 2,46 ± 1,2 mg/100 ml serum. The “Total cholesterol Average ± SD” value [1, 12] was 147,2 ± 31,3 mg/100 ml serum, the “Total lipids Average ± SD” value [1, 12] was 1949,7 ± 273,9 mg/100 ml serum and the “Triglycerids Average ± SD” value [1, 12] was 583,4 ± 121,1 mg/100 ml serum. The “Alfa-Lipoproteins: Increase towards Group 2” value ([1]; 100 mg/kg os) was “+100%”, the “Beta-Lipoproteins: Inhibition towards Group 2” value ([1]; 100 mg/kg os) was -72,6% and the “Beta/alfa ratio: Inhibition towards Group 2” value ([1]; 100 mg/kg os) was -80,3%. The “Total cholesterol: Inhibition” value ([1]; 100 mg/kg os) was -50,3%, the “Total lipids: Inhibition” value ([1]; 100 mg/kg os) was -48,9% and the “Triglycerids: Inhibition” value ([1]; 100 mg/kg os) was -55,5%. The “Dose dependence of activity inhibiting the hyperdislipidemia” value ([1]; 25, 50 and 100 mg/kg oral, Triton WR-1339 rat) was “depends on the dosage”, the “Activity compared with UA” value ([1]; Triton WR-1339 rat) was “more active than UA in all the considered tests” and the “Activity compared with UA” value ([1]; Triton WR-1339 rat, listed as sodium ursosulphate (US)) was “an activity in some cases higher than that of ursodeoxycholic acid”. For the same molecule, the mortality at 192 h ([2]; 1000 mg/kg) was 0%, the mortality at 192 h ([2]; 2000 mg/kg) was 0% and the mortality at 192 h ([2]; 3000 mg/kg) was 0%. The mortality at 192 h ([2]; 4000 mg/kg) was 0%, the mortality at 192 h ([2]; 5000 mg/kg) was 20% and the mortality at 192 h ([2]; 6000 mg/kg) was 40%. The Symptomatology (rat [3]; 1000 mg/kg) was “N”, the Died animals (rat [3]; 1000 mg/kg) was 0 animals and the Symptomatology (rat [3]; 2000 mg/kg) was “N”. For the same molecule, the Died animals (rat [3]; 2000 mg/kg) was 0 animals, the Symptomatology (rat [3]; 3000 mg/kg) was “D” and the Died animals (rat [3]; 3000 mg/kg) was 0 animals. The Symptomatology (rat [3]; 4000 mg/kg) was “D”, the Died animals (rat [3]; 4000 mg/kg) was 0 animals and the Symptomatology (rat [3]; 5000 mg/kg) was “D”. The Died animals (rat [3]; 5000 mg/kg) was 2 animals, the Symptomatology (rat [3]; 6000 mg/kg) was “D” and the Died animals (rat [3]; 6000 mg/kg) was 4 animals. The LD50 (rat [3]; [13]) was “the LD50 was not reached up to the administered doses”, the mortality at 192 h ([4]; 500 mg/kg) was 0% and the mortality at 192 h ([4]; 600 mg/kg) was 0%. The mortality at 192 h ([4]; 700 mg/kg) was 0%, the mortality at 192 h ([4]; 800 mg/kg) was 0% and the mortality at 192 h ([4]; 900 mg/kg) was 10%. For the same molecule, the Symptomatology (rat [5]; 500 mg/kg) was “N”, the Died animals (rat [5]; 500 mg/kg) was 0 animals and the Symptomatology (rat [5]; 600 mg/kg) was “N”. For the same molecule, the Died animals (rat [5]; 600 mg/kg) was 0 animals, the Symptomatology (rat [5]; 700 mg/kg) was “D” and the Died animals (rat [5]; 700 mg/kg) was 0 animals. The Symptomatology (rat [5]; 800 mg/kg) was “D”, the Died animals (rat [5]; 800 mg/kg) was 0 animals and the Symptomatology (rat [5]; 900 mg/kg) was “D”. For the same molecule, the Died animals (rat [5]; 900 mg/kg) was 2 animals, the LD50 (rat [5]; [13]) was “the LD50 was not reached up to the administered doses” and the mortality at 192 h ([6]; 400 mg/kg) was 0%. The mortality at 192 h ([6]; 500 mg/kg) was 0%, the mortality at 192 h ([6]; 600 mg/kg) was 0% and the mortality at 192 h ([6]; 650 mg/kg) was 10%. For the same molecule, the mortality at 192 h ([6]; 700 mg/kg) was 10%, the mortality at 192 h ([6]; 750 mg/kg) was 20% and the Symptomatology (rat [7]; 400 mg/kg) was “N”. For the same molecule, the Died animals (rat [7]; 400 mg/kg) was 0 animals, the Symptomatology (rat [7]; 500 mg/kg) was “N” and the Died animals (rat [7]; 500 mg/kg) was 0 animals. The Symptomatology (rat [7]; 600 mg/kg) was “D”, the Died animals (rat [7]; 600 mg/kg) was 0 animals and the Symptomatology (rat [7]; 650 mg/kg) was “D + C”. The Died animals (rat [7]; 650 mg/kg) was 1 animals, the Symptomatology (rat [7]; 700 mg/kg) was “D + C” and the Died animals (rat [7]; 700 mg/kg) was 1 animals. For the same molecule, the Symptomatology (rat [7]; 750 mg/kg) was “D + C”, the Died animals (rat [7]; 750 mg/kg) was 2 animals and the LD50 (rat [7]; [13]) was “the LD50 was not reached up to the administered doses”. For the same molecule, the Solubility in water ([8]; listed as Sodium ursosulphate) was “very soluble in water”, the Solubility in water ([8]; listed as sodium ursosulphate) was “very soluble in water” and the “Toxicity compared with ursodeoxycholic acid” value [9] was “does not show any significative differences and maintains the values already known for ursodeoxycholic acid”.
